From publication PMC11071649, “Synthesis and Selective Anticancer Activity Evaluation of 2-phenylacrylonitrile Derivatives as Tubulin Inhibitors” (Current Medicinal Chemistry, 2024)

How the values were obtained:
Type in all cases: cell-based, human
[1] = system: Raji B lymphoblastoid cell; experiment: MTT anti-proliferative assay, Raji; settings: MTT, 48 h; read-out: IC50 Raji
Experimental: (§1) The anti-proliferation activities of the synthesized analogs were assessed by an in vitro MTT assay conducted on thirteen human cell lines. Their cytotoxic activities were evaluated by measuring the inhibition of net cell growth. […]
(§2) 1.6. Cell lines and cell culture
(§3) MTT was purchased from Sigma-Aldrich Co. (St. Louis, MO, USA). The PI and Annexin V-FITC apoptosis detection kit were purchased from Invitrogen (Eugene, OR, USA). All human cell lines were used in this study. […]
(§4) cell, MCF-7 breast cancer cell, MCF-10A normal breast cell, Raji B lymphoblastoid cell and diffuse large B-cell lymphoma SU-DHL-10 cell were initially purchased from American Type Culture Collection (ATCC, Manassas, Virginia). media, DMEM, and FBS were provided from Gibco Company.
(§5) 1.7. Cell growth inhibition assay (MTT assay)
(§6) The experiment was carried out according to the method of reference. Briefly, cells were plated in 96-well plates at a den- […]
(§7) the anti-proliferative activities were determined by MTT assay. […]
(§8) (Becton-Dickinson, Franklin Lakes, NJ). […]

[2] = system: MGC-803 late stage differentiation gastric cancer cell; experiment: MTT anti-proliferative assay, MGC-803; settings: for IC50: MTT, 48 h
Experimental: as §1, §2, §3, §4, §5, §6, §7, §8

[3] = system: SGC-7901 early differentiation gastric cancer cell; experiment: MTT anti-proliferative assay, SGC-7901; settings: for IC50: MTT, 48 h
Experimental: as §1, §2, §3, §4, §5, §6, §7, §8

[4] = system: MCF-7 breast cancer cell; experiment: MTT anti-proliferative assay, MCF-7; settings: MTT, 48 h
Experimental: as §1, §2, §3, §4, §5, §6, §7, §8

[5] = system: A549 lung cancer cell; experiment: MTT anti-proliferative assay, A549; settings: for IC50: MTT, 48 h
Experimental: as §1, §2, §3, §4, §5, §6, §7, §8

[6] = system: MCF-10A normal breast cell; experiment: MTT assay, MCF-10A normal cells; settings: 48 h
Experimental: as §1, §2, §3, §4, §5, §6, §7, §8

[7] = system: HeLa cervical cancer cell; experiment: MTT anti-proliferative assay, HeLa; settings: MTT, 48 h
Experimental: as §1, §2, §3, §4, §5, §6, §7, §8

[8] = system: AGS gastric cancer cell; experiment: MTT anti-proliferative assay, AGS; settings: for IC50: MTT, 48 h
Experimental: as §1, §2, §3, §4, §5, §6, §7, §8

[9] = system: L-02 normal liver cell; experiment: MTT assay, L-02 normal cells; settings: 48 h
Experimental: as §1, §2, §3, §4, §5, §6, §7, §8

[10] = system: HepG2 hepatoma cell; experiment: MTT anti-proliferative assay, HepG2; settings: for IC50: MTT, 48 h, read-out: IC50 HepG-2
Experimental: as §1, §2, §3, §4, §5, §6, §7, §8

[11] = system: diffuse large B-cell lymphoma SU-DHL-10 cell; experiment: MTT anti-proliferative assay, SU-DHL-10; settings: MTT, 48 h; read-out: IC50 SU-DHL-10
Experimental: as §1, §2, §3, §4, §5, §6, §7, §8

[12] = system: HCT116 colectal cancer cell; experiment: MTT anti-proliferative assay, HCT116; settings: for IC50: MTT, 48 h, read-out: IC50 HCT-116
Experimental: as §1, §2, §3, §4, §5, §6, §7, §8

[13] = system: BEL-7402 liver cancer cell; experiment: MTT anti-proliferative assay, BEL-7402; settings: MTT, 48 h
Experimental: as §1, §2, §3, §4, §5, §6, §7, §8

SMILES	IC50 [1]	IC50 [2]	IC50 [3]	IC50 [4]	IC50 [5]	IC50 [6]	IC50 [7]	IC50 [8]	IC50 [9]	IC50 [10]	IC50 [11]	IC50 [12]	IC50 [13]	SI (selectivity index), IC50 (L-02)/IC50 (MGC-803) [2]	SI (selectivity index), IC50 (L-02)/IC50 (SGC-7901) [3]	SI (selectivity index), IC50 (L-02)/IC50 (AGS) [8]	SI (selectivity index), IC50 (L-02)/IC50 (HCT-116) [12]	SI (selectivity index), IC50 (L-02)/IC50 (A549) [5]	SI (selectivity index), IC50 (L-02)/IC50 (HepG-2) [10]
Cc1cccc(/C=C(\C#N)c2ccc(OC(F)(F)F)cc2)c1 [Compound 1a2q]	> 100 µM	> 100 µM	> 100 µM	> 100 µM	> 100 µM	> 100 µM	> 100 µM	> 100 µM	> 100 µM	> 100 µM	> 100 µM	> 100 µM	> 100 µM						
Cc1cc(C)c(/C=C(\C#N)c2ccc(OC(F)(F)F)cc2)c(C)c1 [Compound 1a2r]	> 100 µM	> 100 µM	> 100 µM	> 100 µM	> 100 µM	> 100 µM	> 100 µM	> 100 µM	> 100 µM	> 100 µM	> 100 µM	> 100 µM	> 100 µM						
N#C/C(=C\c1ccc(N2CCOCC2)cc1)c1ccc(OC(F)(F)F)cc1 [Compound 1a2s]	> 100 µM	> 100 µM	> 100 µM	> 100 µM	> 100 µM	> 100 µM	> 100 µM	> 100 µM	> 100 µM	> 100 µM	> 100 µM	> 100 µM	> 100 µM						
N#C/C(=C\c1ccc(N2CCCC2)cc1)c1ccc(OC(F)(F)F)cc1 [Compound 1a2t]	> 100 µM	41.5 ± 2.1 µM	57.2 ± 14.3 µM	> 100 µM	> 100 µM	> 100 µM	> 100 µM	89.8 ± 1 µM	> 100 µM	> 100 µM	> 100 µM	30.8 ± 2.9 µM	> 100 µM	> 2.4	> 1.7	> 1.1	> 3.2		
N#C/C(=C\c1ccc(N2CCCCC2)cc1)c1ccc(OC(F)(F)F)cc1 [Compound 1a2u]	> 100 µM	> 100 µM	> 100 µM	> 100 µM	> 100 µM	> 100 µM	> 100 µM	> 100 µM	> 100 µM	> 100 µM	> 100 µM	> 100 µM	> 100 µM						
N#C/C(=C\c1ccco1)c1ccc(OC(F)(F)F)cc1 [Compound 1a3a]	> 100 µM	> 100 µM	> 100 µM	> 100 µM	> 100 µM	> 100 µM	> 100 µM	> 100 µM	> 100 µM	> 100 µM	> 100 µM	> 100 µM	> 100 µM						
N#C/C(=C\c1cccs1)c1ccc(OC(F)(F)F)cc1 [Compound 1a3b]	> 100 µM	41.5 ± 2.1 µM	57.2 ± 14.3 µM	> 100 µM	> 100 µM	> 100 µM	> 100 µM	89.8 ± 1 µM	> 100 µM	> 100 µM	> 100 µM	30.8 ± 2.9 µM	> 100 µM	> 1.7	> 1.7	> 2.3	> 1.8	> 1.1	> 1.6
N#C/C(=C\c1cccc2ccccc12)c1ccc(OC(F)(F)F)cc1 [Compound 1a3c]	> 100 µM	> 100 µM	> 100 µM	> 100 µM	> 100 µM	> 100 µM	> 100 µM	> 100 µM	> 100 µM	> 100 µM	> 100 µM	> 100 µM	> 100 µM						
